{
  "source": "patent US20220323761A1",
  "about": "“METHOD FOR INDUCING HIBERNATION-LIKE STATE AND DEVICE SAME” (University of Tsukuba, priority 2019, published 2022)",
  "key": {"[1]": {"tested_on": "hM3Dq-mCherry expressing neurons", "test": "Electrophysiological study of hypothalamus slices, current-clamp firing", "format": "cell-based", "details": "bath-application, CNO 1 μM, slices of Q-hM3D mice", "experimental": "The mice were decapitated under deep anesthesia using isoflurane (Pfizer). The brains were extracted and cooled in an ice-cold cutting solution containing the following (mM): 125 mM choline chloride, 25 mM NaHCO3, 10 mM D(+)-glucose, 7 mM MgCl2, 2.5 mM KCl, 1.25 mM NaH2PO4, and 0.5 mM CaCl2) bubbled with O2 (95%) and CO2 (5%). Horizontal brain slices (thickness of 250 μm) including the hypothalamus were prepared using a vibratome (VT1200S, Leica) and were maintained at room temperature for one hour in artificial CSF (ACSF) containing the following (mM): 125 mM NaCl, 26 mM NaHCO3, 10 mM D(+)-glucose, 2.5 mM KCl, 2 mM CaCl2), and 1 mM MgSO4 bubbled with O2 (95%) and CO2 (5%). The electrodes (5 to 8 MΩ) were filled with an internal solution containing the following (mM): 125 mM K-gluconate, 10 mM HEPES, 10 mM phosphocreatine, 0.05 mM tolbutamide, 4 mM NaCl, 4 mM ATP, 2 mM MgCl2, 0.4 mM GTP, and 0.2 mM EGTA, with a pH of 7.3 and adjusted with KOH). Firing of hM3Dq-mCherry expressing neurons was recorded in a current-clamp mode at a temperature of 30° C. CNO (1 μM) was bath-applied, and the effect was examined. The membrane voltage and data acquisition were controlled using a combination of the MultiClamp 700B amplifier, the Digidata 1440A A/D converter and Clampex 10.3 software (Molecular Devices). […]"}, "hM3Dq in Q-neurons": {"biological_target": "T1, hM3Dq in Q-neurons (Homo sapiens, UniProt P20309, A239G/Y149C)", "T1 construct": "mCherry (C); expressed in transfected cells; host or cells: QRFP-producing (Q) neurons of Qrfp-iCre mice transduced in vivo with AAV10-EF1α-DIO-hM3Dq-mCherry", "T1 sequence (P20309 whole entry Y149C/A239G, the tested form may be a part)": "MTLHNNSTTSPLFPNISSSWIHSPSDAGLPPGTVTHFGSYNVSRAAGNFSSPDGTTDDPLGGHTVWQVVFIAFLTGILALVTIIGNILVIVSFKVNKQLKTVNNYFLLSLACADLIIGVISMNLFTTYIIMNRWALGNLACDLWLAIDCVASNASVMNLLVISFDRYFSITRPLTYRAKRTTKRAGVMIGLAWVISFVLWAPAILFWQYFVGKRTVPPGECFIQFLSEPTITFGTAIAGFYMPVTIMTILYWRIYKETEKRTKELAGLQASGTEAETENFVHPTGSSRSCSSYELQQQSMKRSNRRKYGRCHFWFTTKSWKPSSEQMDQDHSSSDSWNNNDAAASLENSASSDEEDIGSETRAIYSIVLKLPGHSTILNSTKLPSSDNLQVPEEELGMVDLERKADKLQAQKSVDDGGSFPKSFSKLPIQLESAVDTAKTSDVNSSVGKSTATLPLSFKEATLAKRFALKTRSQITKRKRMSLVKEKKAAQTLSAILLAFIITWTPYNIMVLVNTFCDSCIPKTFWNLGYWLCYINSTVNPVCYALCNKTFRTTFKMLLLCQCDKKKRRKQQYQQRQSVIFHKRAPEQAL", "test": "Body temperature, respiratory gas, ECG, EEG, respiration and serum analysis of Q-hM3D mice after IP CNO (QIH)", "format": "in vivo", "text": "In order to record the core body temperature, oxygen consumption amount, EEG, ECG, and respiratory patterns, each animal was housed in a temperature controlled chamber (HC-100, Shin Factory or LP-400P-AR, Nippon Medical & Chemical Instruments Co., Ltd.). In order to continuously record the TB (intraperitoneal temperature), a telemetry temperature sensor (TA11TA-F10, DSI) was implanted into the animal's abdominal cavity under general inhalation anesthesia at least 7 days prior to the recording. The VO 2 and carbon dioxide discharge rate (VCO2) of the animal were continuously recorded using a respiratory gas analyzer (ARCO-2000 mass spectrometer, ARCO System). The respiratory quotient was calculated from the ratio of VCO2/VO2.\nThe EEG and ECG were recorded using a implanted remote measurement transmitter (F20-EET or HD-X02, DSI). For EEG recording, two stainless steel screws (1 mm in diameter) were soldered to a wire of a telemetry transmitter and inserted under general anesthesia through the skull of the cortex (AP, 1.00 mm; right, 1.50 mm from bregma or lambda). Two other wires from the transmitter were placed on the surface of the thoractic cavity, and an ECG was recorded. The mice were allowed to recover from surgery for at least 10 days. An EEG/ECG data collecting system consisted of transmitters, an analog-digital converter and a recording computer with the software Ponemah Physiology Platform (version 6.30, DSI). The sampling rate was 500 Hz for both the EEG and the ECG, and the data was converted into ASCII format for review. The heart rate was evaluated through a visual inspection of the waveform.\nThe respiratory flow was recorded using a non-invasive respiratory flow recording system^35. Specifically, a mouse was placed in metabolic chamber (TMC-1213-PMMA, Minamiderika Shokai) having an air flow of at least 0.3 L/min. The chamber was connected to a pressure sensor (PMD-8203-3G, Biotex), and the pressure difference between the outside and inside of the chamber was detected. If the animal is breathing, the pressure difference from the outside to the inside increases during inhalation and decreases during exhalation^35. An analog signal output from the sensor was converted to a digital signal by an AD converter (NI-9205, National Instruments) at 250 Hz, and stored in a computer using data logging software developed by Biotex Inc.\nThe Dreadd agonist CNO (clozapine N-oxide, Abcam, ab141704) was dissolved in physiological saline at a dose of 100 μg/mL, and the solution was frozen at −20° C. The CNO solution was thawed on site and then administered to each mouse intraperitoneally at a dose of 1 mg/kg. The adenosineAl receptor agonist CHA (N^6-cyclohexyl adenosine, Sigma-Aldrich, C9901) was dissolved in physiological saline at a concentration of 250 μg/mL, and the solution was administered intraperitoneally to each mouse at a dose of 2.5 mg/kg.\nBlood was collected from the mice under anesthesia through a left ventricular puncture using a 25 gauge needle. The collected blood was stored on ice for less than 2 hours. The sample was centrifuged at 2000 G for 10 minutes at 4° C., and the supernatant was collected and frozen at −30° C. The frozen serum specimens were sent to FUJIFILM Wako Pure Chemical Corporation, and the concentrations of Na (mEq/L), K (mEq/L), Cl (mEq/L), AST (IU/L), ALT (IU/L) LDH (IU/L), CK (IU/L), GLU (mg/dL), and total ketone bodies (μmol/L) were measured."}},
  "data": [
    {"smiles": "C[N+]1([O-])CCN(C2=Nc3cc(Cl)ccc3Nc3ccccc32)CC1", "note": "[CNO, clozapine N-oxide]", "values": [
      {"measurement": "excitation of mCherry-positive neurons", "setting": "[1]", "value": "strongly excited"},
      {"measurement": "duration of extremely low TB state (below 30° C.)", "setting": "hM3Dq in Q-neurons; IP injection, Q-hM3D mice", "value": "≥ 48", "unit": "h"},
      {"measurement": "hypothermia compared with Qrfp-iCre; Rosa26^dreaddm3 mice", "setting": "hM3Dq in Q-neurons; IP injection, Q-hM3D mice", "value": "deeper, longer sustained hypothermia"},
      {"measurement": "QIH after repeated injections in the same mice", "setting": "hM3Dq in Q-neurons; Q-hM3D mice", "value": "reproducible"},
      {"measurement": "condition of mice after recovery from QIH", "setting": "hM3Dq in Q-neurons; Q-hM3D mice", "value": "healthy"},
      {"measurement": "electroencephalogram (EEG) in QIH", "setting": "hM3Dq in Q-neurons; Q-hM3D mice", "value": "very low amplitude"},
      {"measurement": "induction of QIH", "setting": "hM3Dq in Q-neurons; Q-hM3D mice", "value": "effectively induces QIH"},
      {"measurement": "tail temperature", "setting": "hM3Dq in Q-neurons; Q-hM3D mice, 0.5 hours after IP CNO", "value": "increases"},
      {"measurement": "O2 consumption rate (VO2) change", "setting": "hM3Dq in Q-neurons; Q-hM3D mice, CNO-induced hypothermic state", "value": "significant reduction"},
      {"measurement": "TB change after administration", "setting": "hM3Dq in Q-neurons; Q-hM3D mice, concurrently with Ts", "value": "decreases"},
      {"measurement": "duration of QIH with TB of less than 30° C.", "setting": "hM3Dq in Q-neurons; TA=20° C., one dose 1 mg/kg", "value": "≥ 48", "unit": "h"},
      {"measurement": "time for VO2 to fully return to normal", "setting": "hM3Dq in Q-neurons; TA=20° C., one dose 1 mg/kg", "value": "about 1 week"},
      {"measurement": "posture during QIH", "setting": "hM3Dq in Q-neurons; TA=28° C., Q-hM3D mice, n=4", "value": "extended posture"},
      {"measurement": "blood glucose levels in QIH", "setting": "hM3Dq in Q-neurons; blood serum chemical data", "value": "reduced"},
      {"measurement": "effect of CNO on TB with TeTxLC co-expressed in Q-neurons", "setting": "hM3Dq in Q-neurons; simultaneous infusion of AAV2/9-hSyn-DIO-TeTxLC-eYFP and AAV10-EF1α-DIO-hM3Dq-mCherry", "value": "completely eliminated"},
      {"measurement": "heart rate", "setting": "hM3Dq in Q-neurons; two hours after CNO injection, average of n=3, 758 two hours prior", "value": 215, "unit": "beats/min"},
      {"measurement": "VO2", "setting": "hM3Dq in Q-neurons; two hours after CNO injection, 3.60 prior", "value": 1.17, "unit": "mL/g/h"},
      {"measurement": "respiratory rate", "setting": "hM3Dq in Q-neurons; two hours after CNO injection, 333 prior", "value": "undetectable"}
    ]}
  ]
}
